Common to all, as to assay type: biochemical
For assay [1], the target named is T1, Human AXL (Homo sapiens, UniProt P30530).
T1 construct: Human AXL (residues 464-885; CarnaBio, 1 ng/ well); purchased CarnaBio
T1 sequence (P30530 464-885 isoform P30530-2): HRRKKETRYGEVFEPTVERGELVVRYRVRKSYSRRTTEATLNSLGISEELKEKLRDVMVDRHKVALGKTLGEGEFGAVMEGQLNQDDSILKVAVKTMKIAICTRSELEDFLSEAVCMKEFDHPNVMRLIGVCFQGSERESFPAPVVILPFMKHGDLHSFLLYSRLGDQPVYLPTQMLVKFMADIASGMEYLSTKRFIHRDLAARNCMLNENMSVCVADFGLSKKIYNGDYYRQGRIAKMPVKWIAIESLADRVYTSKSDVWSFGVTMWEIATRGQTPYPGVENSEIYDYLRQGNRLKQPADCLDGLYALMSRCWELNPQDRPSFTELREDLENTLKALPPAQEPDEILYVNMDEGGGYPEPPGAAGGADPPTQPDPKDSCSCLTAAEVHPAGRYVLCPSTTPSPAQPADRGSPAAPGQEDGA
The assay is described as follows: Human AXL kinase assay (HTRF KinEase). To be noted: Table 2 Biological Activities, ATP at Km (1.0 μM). The protocol: (§1) Kinase activity and compound inhibition were investigated using the HTRF® KinEase assay (Cisbio Cat #62TKOPEB) per manufacturer's instructions. In short, compounds were delivered in 300 nL volumes at 10 different concentrations in DMSO (3% final) to empty 384-well assay plates (Corning cat #3824). A mixture of enzyme, 1 μM biotynlated peptide substrate, and buffer in 10 μL volume was added. The assay was started upon the addition of ATP (at Km). The 10 μL reaction was incubated at room temperature. The reaction was stopped upon the addition of detection buffer containing streptavidin-XL665 (5 μL) and TK antibody-Eu3+ (5 μL). After a 60 min incubation at room temperature, the fluorescence at 665 nm and 620 nm was read on an Envision microplate reader (Perkin Elmer). Kinase activity normalized to DMSO (100% activity) and reference compound at 1 μM and (0% activity) was calculated using the fluorescence ratio […]. IC50 values were calculated by nonlinear regression analysis using a 4-parameter logistic curve fit in ActivityBase XE (IDBS).
Human AXL (residues 464-885; CarnaBio, 1 ng/ well) was incubated with enzymatic buffer (Cisbio) supplemented with 5 mM MgCl2, 1 mM DTT, and Supplemental Enzymatic Buffer (SEB; Cisbio). The mixture was added to the pre-plated compounds. The reaction was initiated upon addition of ATP at Km (1.0 μM). The reaction was incubated at room temperature for 50 min and stopped upon the addition of SA-XL665 and TK-antibody both diluted in EDTA-containing kinase detection buffer (Cisbio). The kinase activity was calculated as stated above and the IC50 values were reported.
In general terms: Time-resolved FRET reads energy transfer from a long-lived donor to a nearby acceptor.

Assay [2] deals with T2, Human MER (Homo sapiens, UniProt Q12866).
T2 construct: Human MER (residues 528-999; CarnaBio, 1 ng/ well); purchased CarnaBio
T2 sequence (Q12866 528-999): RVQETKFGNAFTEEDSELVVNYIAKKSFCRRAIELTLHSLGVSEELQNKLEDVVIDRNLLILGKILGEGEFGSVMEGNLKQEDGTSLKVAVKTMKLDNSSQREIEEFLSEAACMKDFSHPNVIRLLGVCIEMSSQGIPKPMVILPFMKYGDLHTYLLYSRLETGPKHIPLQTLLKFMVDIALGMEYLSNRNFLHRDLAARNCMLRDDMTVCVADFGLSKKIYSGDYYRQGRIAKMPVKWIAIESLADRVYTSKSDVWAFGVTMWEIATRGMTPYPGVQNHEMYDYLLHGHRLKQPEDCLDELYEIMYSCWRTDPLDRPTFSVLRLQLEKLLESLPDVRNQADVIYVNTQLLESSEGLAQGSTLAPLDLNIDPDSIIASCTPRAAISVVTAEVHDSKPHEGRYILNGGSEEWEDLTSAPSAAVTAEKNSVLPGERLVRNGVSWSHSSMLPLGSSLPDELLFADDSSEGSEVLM
The assay is described as follows: Human MER kinase assay (HTRF KinEase). To be noted: Table 2 Biological Activities, ATP at Km (40 μM). The protocol:
as §1
Human MER (residues 528-999; CarnaBio, 1 ng/ well) was incubated with enzymatic buffer (Cisbio) supplemented with 5 mM MgCl2 and 1 mM DTT. The mixture was added to the pre-plated compounds. The reaction was initiated upon addition of ATP at Km (40 μM). The reaction was incubated at room temperature for 60 min and stopped upon the addition of SA-XL665 and TK-antibody both diluted in EDTA-containing kinase detection buffer (Cisbio). The kinase activity was calculated as stated above and the IC50 values were reported.

In assay [3] the target is Met (Homo sapiens, UniProt P08581). The assay is described as follows: Human MET kinase assay (HTRF KinEase). Set-up: Human MET (residues 956-1390; CarnaBio, 0.1 ng/ well); purchased CarnaBio. To be noted: Table 2 Biological Activities, ATP at Km (3.0 μM), read-out: c-Met IC50. On the procedure: as §1
Sequence of Met (P08581 956-1390): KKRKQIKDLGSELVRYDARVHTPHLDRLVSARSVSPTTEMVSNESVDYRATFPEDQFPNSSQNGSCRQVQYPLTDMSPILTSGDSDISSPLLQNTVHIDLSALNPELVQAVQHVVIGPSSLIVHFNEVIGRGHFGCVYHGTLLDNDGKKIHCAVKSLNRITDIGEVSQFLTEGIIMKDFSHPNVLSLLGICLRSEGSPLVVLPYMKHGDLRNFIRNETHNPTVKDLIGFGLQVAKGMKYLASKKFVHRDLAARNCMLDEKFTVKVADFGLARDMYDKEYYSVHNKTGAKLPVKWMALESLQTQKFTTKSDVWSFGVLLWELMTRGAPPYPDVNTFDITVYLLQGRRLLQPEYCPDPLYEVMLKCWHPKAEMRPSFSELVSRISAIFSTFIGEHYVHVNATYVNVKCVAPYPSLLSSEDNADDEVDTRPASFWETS
Human MET (residues 956-1390; CarnaBio, 0.1 ng/ well) was incubated with enzymatic buffer (Cisbio) supplemented with 5 mM MgCl2, 1 mM DTT and 1 mM MnCl2. The mixture was added to the pre-plated compounds. The reaction was initiated upon addition of ATP at Km (3.0 μM). The reaction was incubated at room temperature for 40 min and stopped upon the addition of SA-XL665 and TK-antibody both diluted in EDTA-containing kinase detection buffer (Cisbio). The kinase activity was calculated as stated above and the IC50 values were reported.

Assay [4] has as its target KDR (Homo sapiens, UniProt P35968). The assay is described as follows: Human KDR kinase assay (HTRF KinEase). Set-up: Human KDR (residues 790-1356; CarnaBio, 0.1 ng/ well); purchased CarnaBio. To be noted: Table 2 Biological Activities, ATP at Km (4.0 μM). The protocol:
as §1
Human KDR (residues 790-1356; CarnaBio, 0.1 ng/ well) was incubated with enzymatic buffer (Cisbio) supplemented with 5 mM MgCl2, 1 mM MnCl2, and 1 mM DTT. The mixture was added to the pre-plated compounds. The reaction was initiated upon addition of ATP at Km (4.0 μM). The reaction was incubated at room temperature for 40 min and stopped upon the addition of SA-XL665 and TK-antibody both diluted in EDTA-containing kinase detection buffer (Cisbio). The kinase activity was calculated as stated above and the IC50 values were reported.

Each structure is given as a SMILES string.

Sequence of KDR (P35968 790-1356): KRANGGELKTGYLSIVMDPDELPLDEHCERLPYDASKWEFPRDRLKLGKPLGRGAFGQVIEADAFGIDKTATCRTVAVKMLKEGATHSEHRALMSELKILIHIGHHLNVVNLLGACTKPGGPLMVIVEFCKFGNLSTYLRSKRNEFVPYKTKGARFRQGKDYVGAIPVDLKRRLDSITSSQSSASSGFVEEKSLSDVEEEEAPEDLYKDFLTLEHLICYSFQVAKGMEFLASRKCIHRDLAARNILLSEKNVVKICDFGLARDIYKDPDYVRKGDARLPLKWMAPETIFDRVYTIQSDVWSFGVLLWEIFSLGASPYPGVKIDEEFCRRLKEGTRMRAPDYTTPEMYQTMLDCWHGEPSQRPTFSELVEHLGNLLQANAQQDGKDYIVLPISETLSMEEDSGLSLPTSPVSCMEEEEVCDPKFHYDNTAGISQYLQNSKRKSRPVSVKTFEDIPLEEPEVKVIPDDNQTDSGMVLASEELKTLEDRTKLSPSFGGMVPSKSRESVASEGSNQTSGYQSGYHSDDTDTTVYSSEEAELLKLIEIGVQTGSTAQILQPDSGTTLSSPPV

What is called IC50 is the concentration that gives 50% inhibition. For the molecule `COc1cc2nccc(Oc3ccc(NC(=O)c4ccc(C)n(-c5ccc(F)cn5)c4=O)cc3F)c2nc1OC` [Compound 43, N-[4-[(6,7-Dimethoxy-1,5-naphthyridin-4-yl)oxy]-3-fluorophenyl]-1-(5-fluoropyridin-2-yl)-6-methyl-2-oxopyridine-3-carboxamide], the IC50 in assay [1], in assay [2], in assay [3] and in assay [4] was no more than 100 nM in each case.
Consider `COc1cnc2c(Oc3ccc(NC(=O)c4c(C)ncc(-c5ccccn5)c4O)cc3F)ccnc2c1` [Compound 70, N-[3-Fluoro-4-[(7-methoxy-1,5-naphthyridin-4-yl)oxy]phenyl]-4-hydroxy-2-methyl-5-pyridin-2-ylpyridine-3-carboxamide], for which the IC50 in assay [1], in assay [2], in assay [3] and in assay [4] was no more than 100 nM each time.
For `COc1cc2nccc(Oc3ccc(NC(=O)c4ccc(C)n(-c5ccncc5)c4=O)cc3F)c2nc1OC` [Compound 221, N-[4-[(6,7-Dimethoxy-1,5-naphthyridin-4-yl)oxy]-3-fluorophenyl]-6-methyl-2-oxo-1-pyridin-4-ylpyridine-3-carboxamid], the IC50 in assay [1] and in assay [3] was no more than 100 nM in each case.
For the molecule `COc1cnc2c(Oc3ccc(NC(=O)c4c(C)n(C)cc(-c5ccc(F)cn5)c4=O)cc3F)ccnc2c1` [Compound 73, N-[3-Fluoro-4-[(7-methoxy-1,5-naphthyridin-4-yl)oxy]phenyl]-5-(5-fluoropyridin-2-yl)-1,2-dimethyl-4-oxopyridine-3-carboxamide], the results for the IC50 in assay [2], in assay [3] and in assay [4] were 100 to 300 nM, 300 to 1000 nM and 300 to 1000 nM, respectively.
`COc1cc2nccc(Oc3ccc(NC(=O)c4ccc(C)n(-c5ccncc5F)c4=O)cc3F)c2nc1OC` [Compound 220, N-[4-[(6,7-Dimethoxy-1,5-naphthyridin-4-yl)oxy]-3-fluorophenyl]-1-(3-fluoropyridin-4-yl)-6-methyl-2-oxopyridine-3-carboxamide]: the IC50 in assay [1] and in assay [3] was no more than 100 nM in each case.
As for `COc1ccc2nccc(Oc3ccc(NC(=O)c4ccc(C)n(-c5ccc(F)cn5)c4=O)cc3F)c2c1` [Compound 49, N-[3-Fluoro-4-(6-methoxyquinolin-4-yl)oxyphenyl]-1-(5-fluoropyridin-2-yl)-6-methyl-2-oxopyridine-3-carboxamide], the results for the IC50 in assay [2], in assay [3] and in assay [4] were no more than 100 nM, no more than 100 nM and 100 to 300 nM, respectively.
Turning to `COCc1nc(C)c(-c2ccc(F)cn2)c(O)c1C(=O)Nc1ccc(Oc2ccnc3cc(OC)c(OC)nc23)c(F)c1` [Compound 214, N-[4-[(6,7-Dimethoxy-1,5-naphthyridin-4-yl)oxy]-3-fluorophenyl]-5-(5-fluoropyridin-2-yl)-4-hydroxy-2-(methoxymethyl)-6-methylpyridine-3-carboxamid], the IC50 in assay [1] and in assay [3] was no more than 100 nM each time.
In the case of `COc1cnc2c(Oc3ccc(NC(=O)c4c(C)nc(C)c(-c5ccc(F)cn5)c4O)cc3F)ccnc2c1` [Compound 217, N-[3-Fluoro-4-[(7-methoxy-1,5-naphthyridin-4-yl)oxy]phenyl]-5-(5-fluoropyridin-2-yl)-4-hydroxy-2,6-dimethylpyridine-3-carboxamide], the IC50 in assay [1] and in assay [3] was no more than 100 nM throughout.
On to `COc1cc2nccc(Oc3ccc(NC(=O)c4c(C)nc(C)c(-c5ccc(F)cn5)c4O)cc3F)c2nc1OC` [Compound 218, N-[4-[(6,7-Dimethoxy-1,5-naphthyridin-4-yl)oxy]-3-fluorophenyl]-5-(5-fluoropyridin-2-yl)-4-hydroxy-2,6-dimethylpyridine-3-carboxamide], for which the IC50 in assay [1] and in assay [3] was no more than 100 nM in each case.
`COc1cc2nccc(Oc3ccc(NC(=O)c4cc(C#N)c(C)n(-c5ccc(F)cn5)c4=O)cc3F)c2nc1OC` [Compound 56, 5-Cyano-N-[4-[(6,7-dimethoxy-1,5-naphthyridin-4-yl)oxy]-3-fluorophenyl]-1-(5-fluoropyridin-2-yl)-6-methyl-2-oxopyridine-3-carboxamide]: the IC50 in assay [2] was no more than 100 nM; in assay [3], no more than 100 nM; in assay [4], 300 to 1000 nM.
For the molecule `Cc1ccc(C(=O)Nc2ccc(Oc3ccnc4cnc(Cl)cc34)c(F)c2)c(=O)n1-c1ccc(F)cn1` [Compound 54A, N-[4-[(6-Chloro-1,7-naphthyridin-4-yl)oxy]-3-fluorophenyl]-1-(5-fluoropyridin-2-yl)-6-methyl-2-oxopyridine-3-carboxamide], the IC50 is no more than 100 nM in assay [2], 100 to 300 nM in assay [3] and 300 to 1000 nM in assay [4].
Regarding `COc1cc2nccc(Oc3ccc(NC(=O)c4c(C)n(C)cc(-c5ccc(F)cn5)c4=O)cc3F)c2nc1OC` [Compound 71, N-[4-[(6,7-Dimethoxy-1,5-naphthyridin-4-yl)oxy]-3-fluorophenyl]-5-(5-fluoropyridin-2-yl)-1,2-dimethyl-4-oxopyridine-3-carboxamide], the IC50 is no more than 100 nM in assay [2] and 300 to 1000 nM in assay [4].
Take `COc1cc2nccc(Oc3ccc(NC(=O)c4c(C)n(C)cc(-c5ccc(F)cn5)c4=O)cc3)c2nc1OC` [Compound 72, N-[4-[(6,7-Dimethoxy-1,5-naphthyridin-4-yl)oxy]phenyl]-5-(5-fluoropyridin-2-yl)-1,2-dimethyl-4-oxopyridine-3-carboxamide]: the IC50 in assay [2] was 100 to 300 nM; in assay [3], 300 to 1000 nM; in assay [4], 300 to 1000 nM.
With `COc1cc2nccc(Oc3ccc(NC(=O)c4c(C)nc(C)c(-c5ccc(F)cn5)c4O)cc3)c2nc1OC` [Compound 216, N-[4-[(6,7-Dimethoxy-1,5-naphthyridin-4-yl)oxy]phenyl]-5-(5-fluoropyridin-2-yl)-4-hydroxy-2,6-dimethylpyridine-3-carboxamide], the IC50 in assay [1] and in assay [3] was no more than 100 nM in each case.

Source of the values: patent US20230151003A1, “COMPOUNDS AND METHODS OF USE” (Exelixis, Inc., priority 2020, published 2023).
